We go through five compounds from US7375222B2, “2,4,6-Triamino-1,3,5-triazine derivative” (Astellas Pharma Inc., priority 2002, dated 2008).

In one data set the target is T1, BEC 1 potassium channel (Homo sapiens, UniProt Q9ULD8).
T1 construct: expressed in transfected cells
T1 sequence (Q9ULD8 1-1083): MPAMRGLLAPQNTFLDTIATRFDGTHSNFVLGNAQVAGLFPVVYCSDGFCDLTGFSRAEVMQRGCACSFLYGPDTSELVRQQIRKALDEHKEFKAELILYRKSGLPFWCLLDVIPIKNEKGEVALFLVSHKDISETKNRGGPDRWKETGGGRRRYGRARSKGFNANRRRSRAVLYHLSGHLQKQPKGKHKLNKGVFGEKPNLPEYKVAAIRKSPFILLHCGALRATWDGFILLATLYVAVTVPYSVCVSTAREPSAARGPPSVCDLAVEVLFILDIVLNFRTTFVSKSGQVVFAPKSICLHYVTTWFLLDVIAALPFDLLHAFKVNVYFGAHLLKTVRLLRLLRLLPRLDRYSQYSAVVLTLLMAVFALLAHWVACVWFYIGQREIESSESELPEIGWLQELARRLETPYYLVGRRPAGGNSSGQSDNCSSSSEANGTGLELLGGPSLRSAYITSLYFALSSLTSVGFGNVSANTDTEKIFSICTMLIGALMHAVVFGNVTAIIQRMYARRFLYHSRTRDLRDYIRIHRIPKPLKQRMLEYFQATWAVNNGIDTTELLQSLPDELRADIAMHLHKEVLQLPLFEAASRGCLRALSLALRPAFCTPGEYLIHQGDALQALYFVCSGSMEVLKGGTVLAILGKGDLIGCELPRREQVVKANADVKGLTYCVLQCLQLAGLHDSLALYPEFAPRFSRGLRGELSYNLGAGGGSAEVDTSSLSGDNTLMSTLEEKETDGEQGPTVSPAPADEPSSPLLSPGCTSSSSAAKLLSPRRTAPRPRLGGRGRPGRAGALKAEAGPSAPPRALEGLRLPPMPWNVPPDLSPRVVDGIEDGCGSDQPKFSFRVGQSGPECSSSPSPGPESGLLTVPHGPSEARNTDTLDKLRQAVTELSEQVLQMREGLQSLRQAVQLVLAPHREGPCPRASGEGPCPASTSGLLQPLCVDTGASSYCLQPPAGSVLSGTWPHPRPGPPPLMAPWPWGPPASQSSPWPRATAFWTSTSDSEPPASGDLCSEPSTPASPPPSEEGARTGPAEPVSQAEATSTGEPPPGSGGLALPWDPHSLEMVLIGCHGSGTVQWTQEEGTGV
The experiment in a line: BEC 1 inhibitory activity using released amount of 86Rb ions from BEC 1-expressing cells. As to conditions: 86Rb ion release, BEC 1-stably expressing CHO (dhfr-deficient) cell, 100 mM KCl stimulation; read-out: BEC1 IC50. It is filed as cell-based. As to the method: In general, the potassium channel can pass Rb^+ ion similar to K^+ ion, so that the channel activity can be measured using release of a radioisotope ^86Rb^+ as a marker. By incubating cells expressing the novel potassium channel protein together with ^86RbCl (e.g., 18 hr, 37° C.), ^86Rb^+ can be incorporated into the cells. The cells are washed with a low K^+ concentration physiological saline (e.g., 4.5 mM K^+) and then suspended in the same solution. When a high K^+ concentration solution (e.g., 100 mM in final concentration) is added to the cell suspension, membrane potential of the cell is depolarized and the potassium channel therefore is activated. As a result, the intracellular ^86Rb^+ is released into the extracellular part, thus radioactivity of the extracellular solution can be used as a marker of the channel activity. It is possible to screen a compound and a peptide capable of modifying activity of the BEC 1 potassium channel protein, by comparing the radioactivity released into the extracellular part when the high K^+ concentration solution is added in the presence and absence of each drug to be tested.
Method for Measuring BEC 1 Inhibitory Activity of Compounds Using Released Amount of ^86Rb ions as the Index
The channel activity of BEC 1 was measured in accordance with the method described in WO 99/37677, using amount of a radioisotope ^86Rb ion released from a BEC 1-expressing cell as the index. That is, when an ^86Rb ion-incorporated BEC 1-expressing cell was stimulated with 100 mM KCl, the radioactivity released from the cell was used as the channel activity of BEC 1. The ^86Rb ions were incorporated into a BEC 1-stably expressing cell by culturing the cell (3 hours, 37° C.) in the presence of ^86RbCl (0.5 μCi/ml), and the un-incorporated ^86Rb ions were removed by washing three times with HEPES-buffered saline (pH 7.4, 2.5 mM KCl). The cells were incubated with HEPES-buffered saline containing a compound to be tested at room temperature for 15 minutes and then further incubated with 100 mM KCl-containing HEPES-buffered saline (pH 7.4) containing the compound to be tested at room temperature for 5 minutes. The extracellular medium was recovered, and then the remaining cells were lysed with 0.1 N NaOH and recovered.
The Cerenkov radioactivity of the extracellular medium and cell lysate was respectively measured, and their total was used as the total radioactivity. The released amount of ^86Rb ions was expressed by the percentage of extracellular medium radioactivity based on the total radioactivity. The value obtained in the presence of the compound was used as a test value, and the value obtained in the absence of the compound as a control value and the value obtained when not stimulated with 100 mM KCl as a blank value. Inhibitory action of each compound was expressed by % inhibition, namely (control value−test value)×100/(control value−blank value), or by an IC50 value calculated from the % inhibition. As the test results of typical compounds are shown in the following Tables 2 and 3, it was confirmed that said compounds have the BEC 1 potassium channel inhibitory action.
In this connection, as the BEC 1-expressing cell, a BEC 1-stably expressing cell prepared in accordance with the method described in WO 99/37677 using a dihydrofolate reductase (dhfr)-deficient strain of a Chinese hamster ovary cell was used.

A further data set deals with ECS-induced amnesia. The experiment in a line: Electroconvulsive shock (ECS)-induced amnesia, mouse passive avoidance task. It is filed as in vivo. As to the method:
Electricity Chorea Shock (ECS)-Induced Learning Disorder (Mouse Passive Evasion Reaction Test) The evaluation was carried out in the following manner with reference to a report (Eur. J. Pharmacology, 321; 273-278, 1997). Animals; Male ddy mice (SLC, five weeks of age at the time of the training) were used. Arranged into 31 or 32 animals per group. A compound to be evaluated was suspended in a solution prepared by dissolving methyl cellulose in physiological saline to a concentration of 0.5% (hereinafter, 0.5% methyl cellulose solution). The administration volume was set to 10 ml per 1 kg body weight. As a placebo of the compound to be evaluated, 10 ml of the 0.5% methyl cellulose solution per 1 kg body weight (hereinafter, vehicle) was administered. (2) Each mouse was put into the light compartment of a passive avoidance task apparatus and allowed to stand for 30 seconds. Thereafter, the Guillotine door was opened. […] (3) A period of time until the mouse crossed a sensor in the dark compartment after opening the Guillotine door (step-through latency) was recorded. […] Effect of the compound on ECS-induced amnesia was evaluated by comparison between a step-through latency of (ECS+vehicle administration) group and a that of (ECS+evaluation compound administration) group. Data were analyzed using two-tailed steel test. […]

As a reminder, the IC50 is the point on the concentration scale where inhibition reaches its midpoint. In general, melting point refers to the temperature, or range, at which the solid turns liquid. Compound `OCCCCCNc1nc(Nc2ccccc2)nc(Nc2ccccc2)n1` [compound 22] yielded a melting point of 118 to 119 °C. In addition, the IC50 at BEC 1 potassium channel worked out at 190 nM.
The like results for `CC(C)Nc1nc(Nc2ccccc2)nc(Nc2ccc(F)cc2)n1.Cl` [compound 45, N-(4-fluorophenyl)-N′-isopropyl-N″-phenyl-1,3,5-triazine-2,4,6-triamine hydrochloride] were, in that order, 205 to 206 °C and 220 nM.
`Fc1ccc(Nc2nc(NCc3ccnc(F)c3)nc(Nc3ccccc3)n2)cc1` [Example 744]: at BEC 1 potassium channel, the IC50 amounted to 85 nM. Also, the “minimum effective dose (step-through latency)” value in the data set with ECS-induced amnesia (intraperitoneally administered, male ddy mice, test 24 hours after training) was found to be 3 mg/kg. In addition, the “effect on ECS-induced amnesia” value in the data set with ECS-induced amnesia (mouse passive avoidance task) is “shows the improving effect”.
`COCCNc1nc(Nc2ccccc2)nc(Nc2ccccc2)n1` [compound 17] gave a melting point of 128 to 129 °C. On BEC 1 potassium channel, the IC50 turned out to be 290 nM.
The corresponding values for `CCCCCNc1nc(Nc2ccccc2)nc(Nc2ccccc2)n1` [compound 14] are 78 to 81 °C and 390 nM.
